# Results taken from patent US10428115B2, “Dynorphin A analogs with bradykinin receptors specificity for modulation of neuropathic pain” (THE ARIZONA BOARD OF REGENTS ON BEHALF OF THE UNIVERSITY OF …, priority 2013, dated 2019).
# Where two headings read alike, the source gives them in different places. Square brackets hold non-standard residues; d marks the D form. Ends that are not written are not given here. Nle = CCCC[C@H](N)C(=O)O
# Columns and labels:
# [1] = target: rat brain bradykinin receptors; assay: Radioligand competition binding against [3H]DALKD in rat brain membranes; conditions: for IC50: [3H]DALKD
# Protocol: Binding affinities of dynorphin A analogs at the bradykinin receptors were determined by radioligand competition analysis using [^3H]DALKD or [^3H]BK in rat brain membranes or transfected HEK 293 cells expressing the human B2R. Crude rat brain membranes were pelleted and resuspended in 50 mM Tris buffer containing 50 μg/mL bacitracin, 10 μM captopril, 100 μM PMSF, and 5 mg/mL BSA. 10 concentrations of a test compound were each incubated with 50 μg of membranes and [^3H]DALKD (1 nM, 76.0 Ci/mmol) or [^3H]BK (1 nM, 85.4 Ci/mmol) at 25° C. for 2 h. Non-specific binding was defined by that in the presence of […] KD in all assays. Reactions were terminated by rapid filtration through Whatman GF/B filters presoaked in 1% polyethyleneimine, followed with four washes of 2 mL cold saline. Radioactivity was determined by liquid scintillation counting in a Beckman LS5000 TD. Data were analyzed by non-linear least squares analysis using GraphPad Prism (Version 4). […]
# naive rats = assay: Motor function and paralysis after intrathecal injection (hindlimb tests, tail-flick) in naive rats; format: in vivo, rat; conditions: for motor function after intrathecal (spinal) injection: naive rats
# Protocol: Intrathecal (i.th.) catheterization. While under ketamine/xylazine (80/12 mg/kg, i.p.) anesthesia, some groups of rats were implanted with i.th. catheters (polyethylene 10, 7.8 cm) through atlanto-occipital membrane extended to the level of the lumbar spinal cord for drug administration. Animals were allowed to recover for 7 days. Drugs were injected in a volume of 5 μl, followed by a 1 μl air bubble and a 9 μl saline flush.
# Tail-flick test. The hot-water tail-flick test was performed by placing the distal third of the tail in a water bath maintained at 52° C. The latency until tail withdrawal from the bath was determined and compared among the treatments. A 10 sec cutoff was used to avoid tissue damage. Data were converted to percentage of antinociception by the following formula: (response latency−baseline latency)/(cutoff−baseline latency)*100.
# SNL rats = assay: Reversal of thermal hyperalgesia and tactile hypersensitivity in SNL rats (neuropathic pain model); format: in vivo, rat
# [2] = tested on: bradykinin-induced plasma extravasation; assay: Bradykinin-induced rat paw oedema and plasma extravasation, intraplantar injection; format: in vivo
# Protocol: Experiments were conducted on non-fasted male Sprague-Dawley rats (250-300 g) kept in a room controlled for temperature (22±2° C.) and illumination (12 h on and 12 h off). Under ketamine/xylazine (80/12 mg/kg, i.p.) anesthesia animals received an injection of Evans Blue (30 mg/mL/kg, i.v.) via tail vein and baseline paw volume for both hindpaws was measured by use of a plethysmometer (Ugo Basile). Animals then received 0.1 mL i.pl. injections in one hindpaw of normal saline (0.9% NaCl) containing BK either alone or mixed with HOE140 or LYS1044 (10 nmol/paw each). The contralateral paw received 0.1 mL saline and was used as a control. Oedema was measured at several 30, 60 and 90 min post i.pl. injections and expressed in mL as the difference (mL) between the test and control paws. Three hours post BK injections, animals were sacrificed and patches (10×5 mm) of the dorsal skin from both hindpaws were collected. The skin patches were then incubated separately in Eppendorf tubes containing 1.8 mL formamide at 60° C. water bath for 24 h to extract the dye. The tissue extraction was then centrifuged at 15000 rpm for 15 min and the supernatant was pipetted to a 96 well plate as triplicates and the absorbance was determined at 620 nm. The difference of the mean absorbance between the two hindpaws of each rat was used to compare the degree of plasma extravasation in different treatment groups.
# [3] = Stability in plasma (t1/2)
# guinea pig ileum = conditions: compared with the enkephalins and β-endorphin; cited from earlier work
# [4] = Table 1, brain bradykinin receptors, pH 6.8, read-out: IC50 (nM) at pH 6.8, n ≥ 2
# [5] = Table 1, brain bradykinin receptors, pH 7.4, read-out: IC50 (nM) at pH 7.4, n ≥ 2
# [6] = Table 6, rat brain bradykinin receptors, pH 6.8, read-out: IC50 (nM), cell marked at pH 6.8
# [7] = Table 6, rat brain bradykinin receptors, pH 7.4, read-out: IC50 (nM) at pH 7.4, N > 2
# [8] = Table 4, rat brain bradykinin receptors, pH 7.4, read-out: IC50 (nM) at pH 7.4, N > 2
# [9] = Table 3, rat brain bradykinin receptors, pH 7.4, read-out: IC50 (nM) at pH 7.4, N > 2
# [10] = Table 5, rat brain bradykinin receptors, pH 6.8, read-out: IC50 (nM), cell marked at pH 6.8
# [11] = Table 2, rat brain bradykinin receptors, pH 7.4, read-out: IC50 (nM) at pH 7.4, n > 2
# [12] = Table 5, rat brain bradykinin receptors, pH 7.4, read-out: IC50 (nM) at pH 7.4, N > 2
molecule,measurement,setting,value
"CC[C@H](C)[C@H](NC(=O)[C@H](CCCNC(=N)N)NC(=O)[C@H](CCCNC(=N)N)NC(=O)[C@H](CC(C)C)NC(=O)[C@H](Cc1ccccc1)NC(=O)CNC(=O)CN)C(=O)N[C@@H](CCCNC(=N)N)C(=O)N1CCC[C@H]1C(=O)N[C@@H](CCCCN)C(=O)N[C@@H](CC(C)C)C(=O)N[C@@H](CCCCN)C(=O)O [Dyn (2-13), Gly-Gly-Phe-Leu-Arg-Arg-Ile-Arg-Pro-Lys-Leu-Lys, reference compound]",IC50,[1]; [4],21 nM
same,IC50,[1]; [5],170 nM
same,motor function after intrathecal (spinal) injection,naive rats,produces disturbances of motor function and antinociception
"CC[C@H](C)[C@H](NC(=O)[C@H](CCCNC(=N)N)NC(=O)[C@H](CC(C)C)NC(=O)[C@@H](N)Cc1ccccc1)C(=O)N[C@@H](CCCNC(=N)N)C(=O)N1CCC[C@H]1C(=O)N[C@@H](CCCCN)C(=O)O [LYS1044, Phe-Leu-Arg-Ile-Arg-Pro-Lys]",anti-allodynic effect,SNL rats; tactile hypersensitivity,anti-allodynic effects
same,anti-hyperalgesic effect,SNL rats; thermal hyperalgesia,dose dependent anti-hyperalgesic
same,motor function after intrathecal (spinal) injection,naive rats,does not produce motor impairment
same,prevention of dynorphin A-(2-13)-induced paralysis,naive rats; spinal administration,prevents dynorphin A-(2-13)-induced paralysis
same,changes in paw volume,[2],does not show changes in paw volume
same,prevention of bradykinin-induced plasma extravasation,[2],does not prevent bradykinin-induced plasma extravasation
same,toxic effect on rotarod experiment,Rotarod experiment,no toxic effect
same,half-life,[3],< 3 h
CC[C@H](C)[C@H](NC(=O)[C@H](CCCNC(=N)N)NC(=O)[C@@H](CC(C)C)NC(=O)[C@@H](N)Cc1ccccc1)C(=O)N[C@@H](CCCNC(=N)N)C(=O)N1CCC[C@H]1C(=O)N[C@@H](CCCCN)C(=O)O [SH145],IC50,[1]; [6],99 nM
same,binding affinity at bradykinin receptors (in words),[1]; rat brain bradykinin receptors,retained the same high binding affinity as LYS1044
same,half-life,[3],> 24 h
AN101: modified dynorphin A analog; Table 6 prints only the change: Nle at position 8 (FLR[Nle]RPK),IC50,[1]; [7],140 nM
"AN108-1: dynorphin A analog; Table 4 prints only changes: Ac- at 4, Nle at 5, Nle at 8, Arg at 11 (Ac-F[Nle]R[Nle]RPR)",IC50,[1]; [8],140 nM
"AN108-4: dynorphin A analog; Table 4 prints only changes: Ac-DPhe at 4, Nle at 5, Nle at 8, Arg at 11 (Ac-[dF][Nle]R[Nle]RPR)",IC50,[1]; [8],54 nM
"AN109: dynorphin A analog; Table 4 prints only changes: Ac- in Gly^3 column, Nle at 5, Nle at 8, Arg at 11 (Ac-GF[Nle]R[Nle]RPR)",IC50,[1]; [8],210 nM
Ac-Phe-Leu-Arg-Ile-Arg-Pro-DLys (Ac-FLRIRP[dK]) [AP111],IC50,[1]; [9],550 nM
FIRIRPR [AN105],IC50,[1]; [7],110 nM
"FLRIRPK [AP107-1, Ac-Phe-Leu-Arg-Ile-Arg-Pro-Lys]",IC50,[1]; [9],120 nM
same,IC50,[1]; [8],120 nM
FLRIRPR [AN104],IC50,[1]; [8],210 nM
same,IC50,[1]; [7],210 nM
FLRLRPR [AN106],IC50,[1]; [7],100 nM
"FLRRIRPK [Analogs S1F, Phe-Leu-Arg-Arg-Ile-Arg-Pro-Lys-NH2]",IC50,[1]; [9],6800 nM
"FLRRIRPK [LYS1026, Phe-Leu-Arg-Arg-Ile-Arg-Pro-Lys]",IC50,[1]; [4],69 nM
same,IC50,[1]; [5],140 nM
same,IC50,[1]; [9],140 nM
"FLRRIRRPK [SH114, Phe-Leu-Arg-Arg-Ile-Arg-Arg-Pro-Lys]",IC50,[1]; [10],74 nM
"GFLR [LYS1031, Gly-Phe-Leu-Arg-NH2]",IC50,[1]; [9],> 10000 nM
"GFLR [LYS1035, Gly-Phe-Leu-Arg]",IC50,[1]; [11],950 nM
same,IC50,[1]; [9],950 nM
"GFLRIR [Analogs J101, Gly-Phe-Leu-Arg-Ile-Arg]",IC50,[1]; [12],620 nM
"GFLRIRPK [LYS1045, Gly-Phe-Leu-Arg-Ile-Arg-Pro-Lys]",IC50,[1]; [12],130 nM
"GFLRIRPKLK [LYS1042, Gly-Phe-Leu-Arg-Ile-Arg-Pro-Lys-Leu-Lys]",IC50,[1]; [4],26 nM
same,IC50,[1]; [5],41 nM
same,IC50,[1]; [12],43 nM
"GFLRR [BP006D, Gly-Phe-Leu-Arg-Arg]",IC50,[1]; [11],8100 nM
"GFLRRI [LYS1004, Gly-Phe-Leu-Arg-Arg-Ile]",IC50,[1]; [11],2300 nM
"GFLRRIR [Analogs J104, Gly-Phe-Leu-Arg-Arg-Ile-Arg]",IC50,[1]; [11],780 nM
"GFLRRIRP [BP1004D, Gly-Phe-Leu-Arg-Arg-Ile-Arg-Pro]",IC50,[1]; [11],1200 nM
"GFLRRIRPK [LYS1027, Gly-Phe-Leu-Arg-Arg-Ile-Arg-Pro-Lys]",IC50,[1]; [11],130 nM
"GFLRRIRPKL [LYS1024, Gly-Phe-Leu-Arg-Arg-Ile-Arg-Pro-Lys-Leu]",IC50,[1]; [11],280 nM
"GFLRRIRPKLK [LYS1021, Gly-Phe-Leu-Arg-Arg-Ile-Arg-Pro-Lys-Leu-Lys]",IC50,[1]; [11],320 nM
"GGFLRIRPKLK [CYF103, Gly-Gly-Phe-Leu-Arg-Ile-Arg-Pro-Lys-Leu-Lys]",IC50,[1]; [4],41 nM
same,IC50,[1]; [10],41 nM
"IRPKL [RK107, Ile-Arg-Pro-Lys-Leu-NH2]",IC50,[1]; [9],8700 nM
"IRPKLK [LYS1039, Ile-Arg-Pro-Lys-Leu-Lys]",IC50,[1]; [4],63 nM
same,IC50,[1]; [5],81 nM
"LRIRPK [LYS1043, Leu-Arg-Ile-Arg-Pro-Lys]",IC50,[1]; [12],180 nM
"LRIRPKLK [LYS1040, Leu-Arg-Ile-Arg-Pro-Lys-Leu-Lys]",IC50,[1]; [4],30 nM
same,IC50,[1]; [5],68 nM
same,IC50,[1]; [12],68 nM
"LRRIRPKL [LYS1022, Leu-Arg-Arg-Ile-Arg-Pro-Lys-Leu]",IC50,[1]; [9],7100 nM
"LYS1107: modified dynorphin A analog; Table 6 prints only the change: Nle at position 12 (PK[Nle]K; ends and bridges not checked; also: modified dynorphin A analog, full sequence beyond listed fragment not given here)",IC50,[1]; [7],72 nM
"PKLK [LYS1038, Pro-Lys-Leu-Lys]",IC50,[1]; [4],210 nM
same,IC50,[1]; [5],120 nM
"RIRPKL [RK108, Arg-Ile-Arg-Pro-Lys-Leu-NH2]",IC50,[1]; [9],6300 nM
"RIRPKLK [LYS1114, Arg-Ile-Arg-Pro-Lys-Leu-Lys]",IC50,[1]; [4],72 nM
"RPKLK [LYS1113, Arg-Pro-Lys-Leu-Lys]",IC50,[1]; [4],58 nM
"SH124: modified dynorphin A analog; Table 6 prints only changes: Nle at 8, Lys at 9, Nle at 12 ([Nle]KPK[Nle]K; ends and bridges not checked; also: modified dynorphin A analog, full sequence beyond listed fragment not given here)",IC50,[1]; [6],78 nM
Tyr-Gly-Gly-Phe-Leu-Arg-Arg-Ile-Arg-Pro-Lys-Leu-Lys (YGGFLRRIRPKLK; listed as Homo sapiens) [dynorphin A-(1-13)],activity in guinea pig ileum test,guinea pig ileum,substantially more active than the enkephalins and β-endorphin
WLRIRPK [AN103],IC50,[1]; [7],190 nM
